One test has as its target PIK3CD (Human) (UniProt O00329). The test can be described thus: Assessment of PIK3CD Kinase Activity.
A further test addresses PIK3CA (human) (UniProt P42336). The test can be described thus: Assessment of PIK3CA Kinase Activity.
In another test the target is PIK3CB (Human) (UniProt P42338). The test can be described thus: Assessment of PIK3CB Kinase Activity.

Here are results for 30 compounds from the Kinase Knowledgebase extract (Sharma et al. 2016).

A word on the IC50: it is the midpoint of a concentration-inhibition curve.

Each structure is given as a SMILES string. Where only a bound is given, the exact number is not on record here.

Sequence of PIK3CB (Human) (P42338 whole entry, looked up): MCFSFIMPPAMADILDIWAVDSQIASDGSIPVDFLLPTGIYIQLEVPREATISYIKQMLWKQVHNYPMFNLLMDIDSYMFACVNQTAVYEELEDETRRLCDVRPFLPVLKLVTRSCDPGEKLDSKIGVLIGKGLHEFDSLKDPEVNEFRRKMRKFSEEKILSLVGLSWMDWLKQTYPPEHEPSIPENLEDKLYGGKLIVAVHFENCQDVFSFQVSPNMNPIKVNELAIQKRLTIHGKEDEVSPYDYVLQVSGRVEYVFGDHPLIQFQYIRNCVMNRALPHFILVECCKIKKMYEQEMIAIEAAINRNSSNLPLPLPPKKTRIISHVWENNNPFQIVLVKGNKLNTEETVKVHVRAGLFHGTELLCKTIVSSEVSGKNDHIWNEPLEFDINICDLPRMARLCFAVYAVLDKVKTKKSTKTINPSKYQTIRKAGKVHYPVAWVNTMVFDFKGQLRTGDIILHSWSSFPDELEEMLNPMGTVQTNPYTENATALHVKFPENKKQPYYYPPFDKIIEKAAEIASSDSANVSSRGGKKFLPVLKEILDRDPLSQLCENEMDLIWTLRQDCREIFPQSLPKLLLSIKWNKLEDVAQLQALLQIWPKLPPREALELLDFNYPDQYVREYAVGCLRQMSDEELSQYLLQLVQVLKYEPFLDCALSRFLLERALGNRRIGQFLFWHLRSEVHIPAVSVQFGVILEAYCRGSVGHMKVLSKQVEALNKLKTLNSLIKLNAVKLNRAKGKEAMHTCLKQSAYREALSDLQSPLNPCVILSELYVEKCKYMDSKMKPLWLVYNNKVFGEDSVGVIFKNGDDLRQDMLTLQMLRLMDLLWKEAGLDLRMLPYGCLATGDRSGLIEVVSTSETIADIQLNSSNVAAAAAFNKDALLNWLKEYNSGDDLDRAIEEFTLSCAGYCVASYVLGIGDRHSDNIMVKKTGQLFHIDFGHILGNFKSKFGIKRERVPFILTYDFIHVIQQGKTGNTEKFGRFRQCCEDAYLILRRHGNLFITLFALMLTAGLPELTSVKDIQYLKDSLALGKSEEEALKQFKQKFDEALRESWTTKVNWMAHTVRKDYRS
Sequence of PIK3CA (human) (P42336 whole entry, looked up): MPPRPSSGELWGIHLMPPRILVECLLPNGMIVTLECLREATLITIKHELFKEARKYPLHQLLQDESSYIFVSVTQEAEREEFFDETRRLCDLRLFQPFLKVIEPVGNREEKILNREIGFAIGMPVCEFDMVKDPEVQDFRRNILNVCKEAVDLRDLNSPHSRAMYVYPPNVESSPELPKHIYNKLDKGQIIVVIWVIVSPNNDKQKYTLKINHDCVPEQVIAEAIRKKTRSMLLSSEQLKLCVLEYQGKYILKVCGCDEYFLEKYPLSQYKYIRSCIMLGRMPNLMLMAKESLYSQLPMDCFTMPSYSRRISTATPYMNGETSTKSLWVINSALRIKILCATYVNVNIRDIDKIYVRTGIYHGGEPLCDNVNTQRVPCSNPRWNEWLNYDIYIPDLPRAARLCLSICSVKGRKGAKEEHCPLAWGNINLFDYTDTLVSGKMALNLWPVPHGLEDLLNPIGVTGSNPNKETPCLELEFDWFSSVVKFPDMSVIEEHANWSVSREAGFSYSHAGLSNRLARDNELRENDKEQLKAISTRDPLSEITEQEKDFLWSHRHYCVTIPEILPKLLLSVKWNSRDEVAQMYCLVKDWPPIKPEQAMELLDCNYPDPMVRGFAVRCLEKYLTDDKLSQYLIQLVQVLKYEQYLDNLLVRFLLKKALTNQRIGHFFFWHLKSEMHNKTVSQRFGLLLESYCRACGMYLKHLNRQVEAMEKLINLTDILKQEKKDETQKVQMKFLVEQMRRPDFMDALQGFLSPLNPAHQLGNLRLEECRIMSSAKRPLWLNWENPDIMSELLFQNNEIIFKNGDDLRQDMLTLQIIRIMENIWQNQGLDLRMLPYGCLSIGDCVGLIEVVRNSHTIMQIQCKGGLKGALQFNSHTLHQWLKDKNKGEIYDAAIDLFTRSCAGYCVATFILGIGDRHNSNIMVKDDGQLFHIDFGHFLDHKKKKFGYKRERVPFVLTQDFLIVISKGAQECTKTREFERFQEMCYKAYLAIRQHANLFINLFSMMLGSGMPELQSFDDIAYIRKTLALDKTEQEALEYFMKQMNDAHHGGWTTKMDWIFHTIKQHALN
Sequence of PIK3CD (Human) (O00329 whole entry, looked up): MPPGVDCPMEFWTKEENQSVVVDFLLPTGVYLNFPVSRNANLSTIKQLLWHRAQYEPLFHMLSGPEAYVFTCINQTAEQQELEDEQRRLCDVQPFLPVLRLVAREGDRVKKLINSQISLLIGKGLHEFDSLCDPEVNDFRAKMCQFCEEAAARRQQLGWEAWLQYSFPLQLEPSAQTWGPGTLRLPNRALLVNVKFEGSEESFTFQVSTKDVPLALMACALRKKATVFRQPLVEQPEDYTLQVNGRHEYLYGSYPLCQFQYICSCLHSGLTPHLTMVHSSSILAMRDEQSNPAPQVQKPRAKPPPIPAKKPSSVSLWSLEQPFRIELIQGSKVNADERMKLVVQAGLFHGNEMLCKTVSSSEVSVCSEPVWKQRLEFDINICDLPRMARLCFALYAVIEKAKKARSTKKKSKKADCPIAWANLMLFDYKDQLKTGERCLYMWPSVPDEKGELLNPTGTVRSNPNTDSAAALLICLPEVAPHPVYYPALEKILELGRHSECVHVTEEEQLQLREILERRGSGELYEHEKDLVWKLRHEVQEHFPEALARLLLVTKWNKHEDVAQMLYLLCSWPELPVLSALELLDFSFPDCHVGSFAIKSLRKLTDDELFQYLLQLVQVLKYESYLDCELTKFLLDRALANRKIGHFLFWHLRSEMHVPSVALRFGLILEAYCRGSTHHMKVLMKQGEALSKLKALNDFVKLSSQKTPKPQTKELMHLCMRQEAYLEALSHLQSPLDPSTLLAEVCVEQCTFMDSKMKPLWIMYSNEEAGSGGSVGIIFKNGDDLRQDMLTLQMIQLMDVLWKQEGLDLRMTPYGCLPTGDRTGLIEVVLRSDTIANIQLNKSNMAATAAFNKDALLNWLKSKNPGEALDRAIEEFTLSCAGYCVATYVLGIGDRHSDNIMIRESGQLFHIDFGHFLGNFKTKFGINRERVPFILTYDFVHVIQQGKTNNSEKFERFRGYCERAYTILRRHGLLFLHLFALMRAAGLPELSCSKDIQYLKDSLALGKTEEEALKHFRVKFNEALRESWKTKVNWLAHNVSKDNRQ

Regarding `COc1cc(N)cc2c1nc(C(F)F)n2-c1nc(-c2ccn(C)n2)nc(N2CCOCC2)n1`, the IC50 against PIK3CD (Human) and against PIK3CA (human) was < 100 nM each time.
As to `COc1ncc(Nc2nc(N3CCOCC3)nc(-n3c(C(F)F)nc4c(OC)cccc43)n2)cn1`, the IC50 was 100 to 1000 nM on PIK3CB (Human), < 100 nM on PIK3CD (Human) and < 100 nM against PIK3CA (human).
In the case of `FC(F)c1nc2ccccc2n1-c1nc(Nc2cccnn2)nc(N2CCOCC2)n1`, the IC50 was 100 to 1000 nM at PIK3CB (Human), < 100 nM against PIK3CD (Human) and < 100 nM against PIK3CA (human).
On PIK3CA (human), `FC(F)c1nc2ccccc2n1-c1nc(Oc2cccnc2)nc(N2CCOCC2)n1` had an IC50 of 100 to 1000 nM.
As to `FC(F)c1nc2ccccc2n1-c1nc(Nc2ncccn2)nc(N2CCOCC2)n1`, the IC50 against PIK3CA (human) lay in the range of 100 to 1000 nM.
`Cn1cc(Nc2nc(N3CCOCC3)nc(-n3c(C(F)F)nc4ccccc43)n2)cn1`: the IC50 is 100 to 1000 nM against PIK3CB (Human), < 100 nM against PIK3CD (Human) and < 100 nM against PIK3CA (human).
`COc1cccc2c1nc(C(F)F)n2-c1nc(-c2cccnc2)nc(N2CCOCC2)n1`: the IC50 against PIK3CD (Human) and at PIK3CA (human) was < 100 nM each time.
Consider `COc1ccncc1Nc1nc(N2CCOCC2)nc(-n2c(C(F)F)nc3ccccc32)n1`, for which the IC50 is 100 to 1000 nM against PIK3CB (Human), < 100 nM at PIK3CD (Human) and < 100 nM against PIK3CA (human).
The compound `FC(F)c1nc2ccccc2n1-c1nc(NCc2ccncc2)nc(N2CCOCC2)n1` yielded an IC50 at PIK3CA (human) of 100 to 1000 nM.
Regarding `FC(F)c1nc2ccccc2n1-c1nc(Nc2ccccc2)nc(N2CCOCC2)n1`, the results for the IC50 against PIK3CB (Human), at PIK3CD (Human) and at PIK3CA (human) were 100 to 1000 nM, < 100 nM and 100 to 1000 nM, respectively.
Regarding `COc1cc(N)cc2c1nc(C(F)F)n2-c1nc(-c2cccnc2)cc(N2CCOCC2)n1`, the IC50 on PIK3CD (Human) and on PIK3CA (human) was < 100 nM in each case.
In turn, `CSc1nc2ccccc2n1-c1nc(Nc2cccnc2)nc(N2CCOCC2)n1` returned an IC50 against PIK3CD (Human) of 100 to 1000 nM.
Turning to `COc1cccc2c1nc(C(F)F)n2-c1nc(-c2cncnc2)cc(N2CCOCC2)n1`, the IC50 at PIK3CD (Human) is 100 to 1000 nM; against PIK3CA (human), < 100 nM.
For `COc1cccc2c1nc(C(F)F)n2-c1nc(Nc2cnc(N(C)CCN(C)C)nc2)nc(N2CCOCC2)n1`, the IC50 against PIK3CD (Human) and against PIK3CA (human) was < 100 nM in each case.
In the case of `COc1cccc2c1nc(C(F)F)n2-c1nc(Nc2ccc(N(C)C)nc2)nc(N2CCOCC2)n1`, the results for the IC50 against PIK3CB (Human), on PIK3CD (Human) and at PIK3CA (human) were 100 to 1000 nM, < 100 nM and < 100 nM, respectively.
Take `COc1cc(Nc2nc(N3CCOCC3)nc(-n3c(C(F)F)nc4c(OC)cccc43)n2)ncn1`: the IC50 against PIK3CB (Human) was 100 to 1000 nM; against PIK3CD (Human) it was < 100 nM; against PIK3CA (human) it was < 100 nM.
For `FC(F)c1nc2ccccc2n1-c1nc(Nc2ccncc2)nc(N2CCOCC2)n1`, the IC50 at PIK3CB (Human) is 100 to 1000 nM; on PIK3CD (Human) it was < 100 nM; against PIK3CA (human), < 100 nM.
Consider `FC(F)c1nc2ccccc2n1-c1nc(-c2cncnc2)cc(N2CCOCC2)n1`, for which the IC50 at PIK3CD (Human) and at PIK3CA (human) was 100 to 1000 nM in each case.
On to `COc1cc(N)cc2c1nc(C(F)F)n2-c1nc(N2CCOCC2)nc(-n2cccn2)n1`, for which the IC50 against PIK3CD (Human) and against PIK3CA (human) was < 100 nM each time.
On to `CN(c1ccccc1)c1nc(N2CCOCC2)nc(-n2c(C(F)F)nc3ccccc32)n1`, for which the IC50 on PIK3CB (Human), on PIK3CD (Human) and on PIK3CA (human) was 100 to 1000 nM in each case.
As for `FC(F)c1nc2ccccc2n1-c1nc(-c2cccnc2)cc(N2CCOCC2)n1`, the IC50 against PIK3CD (Human) and at PIK3CA (human) was 100 to 1000 nM in each case.
Turning to `COc1cccc2c1nc(C(F)F)n2-c1nc(-c2ccc(N)nc2)nc(N2CCOCC2)n1`, the IC50 against PIK3CD (Human) and against PIK3CA (human) was < 100 nM each time.
Consider `COc1ccc(Nc2nc(N3CCOCC3)nc(-n3c(C(F)F)nc4c(OC)cccc43)n2)nn1`, for which the IC50 against PIK3CB (Human) was 100 to 1000 nM; against PIK3CD (Human), < 100 nM; on PIK3CA (human), < 100 nM.
With `COc1cccc2c1nc(C(F)F)n2-c1nc(Nc2cnc(Cl)nc2)nc(N2CCOCC2)n1`, the IC50 at PIK3CD (Human) and against PIK3CA (human) was < 100 nM throughout.
For `FC(F)c1nc2ccccc2n1-c1nc(Nc2cnccn2)nc(N2CCOCC2)n1`, the IC50 at PIK3CD (Human) and against PIK3CA (human) was < 100 nM each time.
With `COc1cccc2c1nc(C(F)F)n2-c1nc(Nc2cccnc2)nc(N2CCOCC2)n1`, the IC50 is 100 to 1000 nM on PIK3CB (Human), < 100 nM against PIK3CD (Human) and < 100 nM against PIK3CA (human).
Turning to `FC(F)c1nc2ccccc2n1-c1nc(Oc2ccccc2)nc(N2CCOCC2)n1`, the IC50 against PIK3CB (Human) and on PIK3CA (human) was > 10000 nM in each case.
For the compound `COc1cc(N)cc2c1nc(C(F)F)n2-c1nc(-c2cn[nH]c2)nc(N2CCOCC2)n1`, the IC50 against PIK3CD (Human) and against PIK3CA (human) was < 100 nM in each case.
With `COc1cccc2c1nc(C(F)F)n2-c1nc(N2CCOCC2)nc(N(C)c2cccnc2)n1`, the IC50 at PIK3CB (Human), at PIK3CD (Human) and against PIK3CA (human) was < 100 nM throughout.
With `FC(F)c1nc2ccccc2n1-c1nc(Sc2ccccc2)nc(N2CCOCC2)n1`, the IC50 at PIK3CB (Human) and against PIK3CA (human) was > 10000 nM throughout.
